“Also recorded” adds a separate entry of the source.
Key:
[1] = human, in vivo
[2] = Continuous EKG monitoring, corrected QT interval; assay type: in vivo, human; details: days 1 and 15 of cycle 1
[3] = Phase I dose-escalation study: adverse events, DLT and tolerability in patients; details: drug-related; 33 patients
[4] = cited from earlier work
[5] = Comprehensive ophthalmologic evaluation of patients on study; assay type: in vivo, human
[6] = cited from earlier work; remark: listed apart in the source
[7] = tested on: Hsp70 levels in peripheral blood mononuclear cells (PBMCs); experiment: Hsp70 induction in peripheral blood by western blot; assay type: in vivo, human
[8] = no reference given, cited from earlier work
[9] = 18 days after initiation of cycle 3

## CC1(C)CC(=O)c2c(C(F)(F)F)nn(-c3ccc(C(N)=O)c(N[C@H]4CC[C@H](OC(=O)CN)CC4)c3)c2C1 [PF-04929113]
[1]
  Fatigue, Grade 2: 2 (6) Number of patients (%)
  Fatigue, Grade 3: 0 Number of patients (%)
  Fatigue, Grade 4: 0 Number of patients (%)
  Flu-like symptoms, Grade 1: 1 (3) Number of patients (%)
  Flu-like symptoms, Grade 2: 0 Number of patients (%)
  Flu-like symptoms, Grade 3: 0 Number of patients (%)
  Flu-like symptoms, Grade 4: 0 Number of patients (%)
  Hyponatremia, Grade 1: 1 (3) Number of patients (%)
  Hyponatremia, Grade 2: 0 Number of patients (%)
  Hyponatremia, Grade 3: 0 Number of patients (%)
  Hyponatremia, Grade 4: 0 Number of patients (%)
  Hypophosphatemia, Grade 1: 0 Number of patients (%)
  Hypophosphatemia, Grade 2: 1 (3) Number of patients (%)
  Hypophosphatemia, Grade 3: 0 Number of patients (%)
  Hypophosphatemia, Grade 4: 0 Number of patients (%)
  Joint pain, Grade 1: 1 (3) Number of patients (%)
  Joint pain, Grade 2: 1 (3) Number of patients (%)
  Joint pain, Grade 3: 0 Number of patients (%)
  Joint pain, Grade 4: 0 Number of patients (%)
  Leukopenia, Grade 1: 2 (6) Number of patients (%)
  Leukopenia, Grade 2: 0 Number of patients (%)
  Leukopenia, Grade 3: 0 Number of patients (%)
  Leukopenia, Grade 4: 0 Number of patients (%)
  Lymphopenia, Grade 1: 2 (6) Number of patients (%)
  Lymphopenia, Grade 2: 6 (18) Number of patients (%)
  Lymphopenia, Grade 3: 0 Number of patients (%)
  Lymphopenia, Grade 4: 0 Number of patients (%)
  Muscle pain, Grade 1: 0 Number of patients (%)
  Muscle pain, Grade 2: 1 (3) Number of patients (%)
  Muscle pain, Grade 3: 0 Number of patients (%)
  Muscle pain, Grade 4: 0 Number of patients (%)
  Nausea, Grade 1: 8 (24) Number of patients (%)
  Nausea, Grade 2: 1 (3) Number of patients (%)
  Nausea, Grade 3: 0 Number of patients (%)
  Nausea, Grade 4: 0 Number of patients (%)
  Neutropenia, Grade 1: 1 (3) Number of patients (%)
  Neutropenia, Grade 2: 0 Number of patients (%)
  Neutropenia, Grade 3: 0 Number of patients (%)
  Neutropenia, Grade 4: 0 Number of patients (%)
  Thrombocytopenia, Grade 1: 4 (12) Number of patients (%)
  Thrombocytopenia, Grade 2: 0 Number of patients (%)
  Thrombocytopenia, Grade 3: 1 (3) Number of patients (%)
  Thrombocytopenia, Grade 4: 0 Number of patients (%)
  Weight loss, Grade 1: 1 (3) Number of patients (%)
  Weight loss, Grade 2: 0 Number of patients (%)
  Weight loss, Grade 3: 0 Number of patients (%)
  Weight loss, Grade 4: 0 Number of patients (%)
  grade 3 AEs: AST elevation: 3%
  grade 3 AEs: diarrhea: 9%
  grade 3 AEs: non-septic arthritis: 3%
  grade 3 AEs: thrombocytopenia: 3%
[1]; [9]
  Arthritis (non-septic), Grade 3: 1 (3) Number of patients (%)
  Dose at which the DLT (non-septic arthritis) was noted: 16 mg/m^2/dose
[2]
  Effect on the corrected QT interval: did not reveal any effect
[3]
  Grade 4 adverse events or deaths: No grade 4 adverse events (AEs) were seen; also recorded: No drug-related grade 4 adverse events or deaths were seen
[4]
  Oral bioavailability: orally bioavailable
[5]; oral twice weekly
  Drug-related ocular toxicity in this study: no clinically significant drug-related ocular toxicity was seen in this study
[5]; three patients at 77, 133 and 177 mg/m^2, after 8, 10 and 28 cycles
  Ocular examination findings in single patients: slightly prolonged cone-rod break in the right eye but the ERG was normal; also recorded: normal eye exam; also recorded: slightly prolonged cone-rod break in one patient
[6]
  Water solubility: water soluble
[7]; PBMCs
  Dose at or above which an increase in Hsp70 levels was seen in all patients: ≥ 33 mg/m^2/day
[7]; PBMCs, compared to baseline
  Patients with increased Hsp70 protein level at day 15 and/or day 16: 16 out of 19
[7]; fold increase at 24h versus baseline
  Relation of Hsp70 induction to PK parameters (Cmax and AUCinf of each cohort): linear correlation
[7]; in vivo
  Inhibition of Hsp90 in patients (PD studies): confirmed inhibition of Hsp90
[7]; orally twice weekly, based on PD data
  lowest biologically effective dose: 33 mg/m^2
[7]; ≤ 44 vs > 44 mg/m^2/dose
  Level of Hsp70 induction as a function of dose: greater at higher dose levels
[8]; another phase I study, daily administration
  Patients with visual symptoms (nictalopia and blurred vision): 4 out of 20 and Four out of 20
[8]; daily administration, grade 1
  Patients who complained of blurred vision: one
  Patients who complained of nictalopia: Three
[8]; in most cases, daily administration
  Onset of visual event after beginning the drug: ≤ 2 weeks
[8]
  DLTs with daily administration: 3 cases of grade 3 diarrhea, 1 case of grade 2 dehydration and grade 3 gastrointestinal hemorrhage and 1 case of grade 3 visual disturbance and grade 3 diarrhea

— publication PMC3207004 (Clinical cancer research : an official journal of the …, 2011)
